Laboratory results as given in patent US6737383B1, “Herbicidal oxadiazolidines” (priority 1999, dated 2004).

Key:
[1] = system: pigweed; test: Test B pre/postemergence pigweed; format: in vivo, Amaranthus retroflexus
Method in brief: (§1)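 Test chemicals in a non-phytotoxic solvent mixture with surfactant were sprayed preemergence onto planted seeds and postemergence onto plants 2 to 18 cm tall (1- to 4-leaf stage). After twelve to sixteen days in a greenhouse, injury was visually rated against untreated controls from 0 (no effect) to 10 (complete control).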

[2] = system: rice; test: Test B flood test rice; format: in vivo, Oryza sativa
Method in brief: (§2)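 Read-out is a visual response score from 0 (no effect) to 10 (complete control), assigned by comparison with untreated controls. Treatment was applied at the 2-leaf stage, and plants stayed in the greenhouse for twelve to sixteen days before scoring.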

[3] = system: wheat; test: Test B pre/postemergence wheat; format: in vivo, Triticum aestivum
Method in brief: as §1

[4] = system: purple nutsedge; test: Test B pre/postemergence purple nutsedge; format: in vivo, Cyperus rotundus
Method in brief: as §1

[5] = system: duck salad; test: Test B flood test duck salad; format: in vivo, Heteranthera limosa
Method in brief: as §2

[6] = system: velvetleaf; test: Test B pre/postemergence velvetleaf; format: in vivo, Abutilon theophrasti
Method in brief: as §1

[7] = system: blackgrass; test: Test B pre/postemergence blackgrass; format: in vivo, Alopecurus myosuroides
Method in brief: as §1

[8] = system: crabgrass; test: Test B pre/postemergence crabgrass; format: in vivo, Digitaria sanguinalis
Method in brief: as §1

[9] = system: surinam grass; test: Test B pre/postemergence surinam grass; format: in vivo, Brachiaria decumbens
Method in brief: as §1

[10] = system: soybean; test: Test B pre/postemergence soybean; format: in vivo, Glycine max
Method in brief: as §1

[11] = system: bedstraw; test: Test B pre/postemergence bedstraw; format: in vivo, Galium aparine
Method in brief: as §1

[12] = system: rape; test: Test B pre/postemergence rape; format: in vivo, Brassica napus
Method in brief: as §1

[13] = system: wild oat; test: Test B pre/postemergence wild oat; format: in vivo, Avena fatua
Method in brief: as §1

[14] = system: sugar beet; test: Test B pre/postemergence sugar beet; format: in vivo, Beta vulgaris
Method in brief: as §1

[15] = system: smallflower flatsedge; test: Test B flood test smallflower flatsedge; format: in vivo, Cyperus difformis
Method in brief: as §2

[16] = system: corn; test: Test B pre/postemergence corn; format: in vivo, Zea mays
Method in brief: as §1

[17] = Postemergence, Rate 62 g/ha, scale 0 to 10, 0 is no effect, 10 is complete control
[18] = Postemergence, Rate 250 g/ha, scale 0 to 10, 0 no effect, 10 complete control
[19] = Preemergence, Rate 62 g/ha, scale 0 to 10 (0 no effect, 10 complete control)
[20] = Preemergence, Rate 125 g/ha, scale 0 to 10 (0 no effect, 10 complete control)
[21] = Preemergence, Rate 250 g/ha, scale of 0 to 10 where 0 is no effect and 10 is complete control
[22] = Preemergence, Rate 500 g/ha, scale 0 (no effect) to 10 (complete control)
[23] = Rate 125 g/ha, Postemergence, scale 0 to 10, 0 no effect, 10 complete control
[24] = Rate 500 g/ha, Postemergence, scale 0 to 10, 0 no effect, 10 complete control
[25] = Rate 125 g/ha, Postemergence section (flood test species), scale 0 to 10, 0 no effect, 10 complete control
[26] = Rate 500 g/ha, listed under Postemergence (flood test species), scale 0 to 10, 0 no effect, 10 complete control
[27] = flood test, listed under Postemergence, Rate 250 g/ha, scale 0 to 10, 0 no effect, 10 complete control

Cc1nn(C)c(C)c1-n1c(=O)on(C(=O)N(c2ccc(F)cc2)C(C)C)c1=O [Compound 75]
Redroot pigweed plant response rating [1, 17]: 0
Redroot pigweed plant response rating [1, 18]: 0
Redroot pigweed plant response rating [1, 19]: 0
Plant response rating, Redroot pigweed [1, 20]: 2
Plant response rating, Redroot pigweed [1, 21]: 7
Redroot pigweed plant response rating [1, 22]: 10
Redroot pigweed plant response rating [1, 23]: 0
Redroot pigweed plant response rating [1, 24]: 0
Rice plant response rating [2, 17]: 2
Rice plant response rating [2, 25]: 2
Rice plant response rating [2, 26]: 2
Rice plant response rating [2, 27]: 2
Wheat plant response rating [3, 17]: 0
Wheat plant response rating [3, 18]: 2
Wheat plant response rating [3, 19]: 0
Plant response rating, Wheat [3, 20]: 0
Plant response rating, Wheat [3, 21]: 0
Wheat plant response rating [3, 22]: 3
Wheat plant response rating [3, 23]: 0
Wheat plant response rating [3, 24]: 4
Nutsedge plant response rating [4, 17]: 0
Nutsedge plant response rating [4, 18]: 0
Nutsedge plant response rating [4, 19]: 0
Plant response rating, Nutsedge [4, 20]: 0
Plant response rating, Nutsedge [4, 21]: 0
Nutsedge plant response rating [4, 22]: 0
Nutsedge plant response rating [4, 23]: 0
Nutsedge plant response rating [4, 24]: 0
Ducksalad plant response rating [5, 17]: 0
Ducksalad plant response rating [5, 25]: 0
Ducksalad plant response rating [5, 26]: 0
Ducksalad plant response rating [5, 27]: 0
Velvetleaf plant response rating [6, 17]: 0
Velvetleaf plant response rating [6, 18]: 0
Velvetleaf plant response rating [6, 19]: 0
Plant response rating, Velvetleaf [6, 20]: 0
Plant response rating, Velvetleaf [6, 21]: 0
Velvetleaf plant response rating [6, 22]: 0
Velvetleaf plant response rating [6, 23]: 0
Velvetleaf plant response rating [6, 24]: 0
Blackgrass plant response rating [7, 17]: 3
Blackgrass plant response rating [7, 18]: 7
Blackgrass plant response rating [7, 19]: 0
Plant response rating, Blackgrass [7, 20]: 1
Plant response rating, Blackgrass [7, 21]: 7
Blackgrass plant response rating [7, 22]: 9
Blackgrass plant response rating [7, 23]: 5
Blackgrass plant response rating [7, 24]: 9
Crabgrass plant response rating [8, 17]: 0
Crabgrass plant response rating [8, 18]: 9
Crabgrass plant response rating [8, 19]: 3
Plant response rating, Crabgrass [8, 20]: 8
Plant response rating, Crabgrass [8, 21]: 10
Crabgrass plant response rating [8, 22]: 10
Crabgrass plant response rating [8, 23]: 2
Crabgrass plant response rating [8, 24]: 9
B. signalgrass plant response rating [9, 17]: 2
B. signalgrass plant response rating [9, 18]: 6
B. signalgrass plant response rating [9, 19]: 0
Plant response rating, B. signalgrass [9, 20]: 1
Plant response rating, B. signalgrass [9, 21]: 2
B. signalgrass plant response rating [9, 22]: 8
B. signalgrass plant response rating [9, 23]: 3
B. signalgrass plant response rating ([9]; Rate 500 g/ha, Postemergence, scale of 0 to 10 where 0 is no effect and 10 is complete control): 8
Soybean plant response rating [10, 17]: 1
Soybean plant response rating [10, 18]: 2
Soybean plant response rating [10, 19]: 0
Plant response rating, Soybean [10, 20]: 0
Plant response rating, Soybean [10, 21]: 0
Soybean plant response rating [10, 22]: 0
Soybean plant response rating [10, 23]: 1
Soybean plant response rating [10, 24]: 2
Bedstraw plant response rating [11, 17]: 0
Bedstraw plant response rating [11, 18]: 0
Bedstraw plant response rating [11, 19]: 0
Plant response rating, Bedstraw [11, 20]: 0
Plant response rating, Bedstraw [11, 21]: 0
Bedstraw plant response rating [11, 22]: 0
Bedstraw plant response rating [11, 23]: 0
Bedstraw plant response rating [11, 24]: 0
Rape plant response rating [12, 17]: 0
Rape plant response rating [12, 18]: 0
Rape plant response rating [12, 19]: 0
Plant response rating, Rape [12, 20]: 0
Plant response rating, Rape [12, 21]: 0
Rape plant response rating [12, 22]: 10
Rape plant response rating [12, 23]: 0
Rape plant response rating [12, 24]: 0
Wild oats plant response rating [13, 17]: 0
Wild oats plant response rating [13, 18]: 0
Wild oats plant response rating [13, 19]: 0
Plant response rating, Wild oats [13, 20]: 0
Plant response rating, Wild oats [13, 21]: 8
Wild oats plant response rating [13, 22]: 8
Wild oats plant response rating [13, 23]: 0
Wild oats plant response rating [13, 24]: 2
Sugarbeets plant response rating [14, 17]: 0
Sugarbeets plant response rating [14, 18]: 0
Sugarbeets plant response rating [14, 19]: 0
Plant response rating, Sugarbeets [14, 20]: 0
Plant response rating, Sugarbeets [14, 21]: 0
Sugarbeets plant response rating [14, 22]: 4
Sugarbeets plant response rating [14, 23]: 0
Sugarbeets plant response rating [14, 24]: 0
S. Flatsedge plant response rating [15, 17]: 0
S. Flatsedge plant response rating [15, 25]: 0
S. Flatsedge plant response rating [15, 26]: 0
S. Flatsedge plant response rating [15, 27]: 0
Corn plant response rating [16, 17]: 0
Corn plant response rating [16, 18]: 0
Corn plant response rating [16, 19]: 0
Plant response rating, Corn [16, 20]: 0
Plant response rating, Corn [16, 21]: 0
Corn plant response rating [16, 22]: 0
Corn plant response rating [16, 23]: 0
Corn plant response rating [16, 24]: 0
